The values below come from US7691844B2, “Nonpeptide substituted spirobenzoazepines as vasopressin antagonists” (Ortho-McNeil Pharmaceutical, Inc., priority 2000, dated 2010).

For assay [1], the target named is T1, V1a (Homo sapiens, UniProt P37288). Put plainly: In-vitro receptor binding assay (3H-arginine-8-vasopressin), V1a. Put shortly: (§1)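 Radioligand is 3H-arginine-8-vasopressin, incubated with receptor for one hour at room temperature, then filtered on GF/C plates and counted by scintillation. Non-specific binding was defined with 1.25 μM vasopressin, and results are given as % inhibition.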

The next assay addresses T2, V1b (Homo sapiens, UniProt P47901).
T2 sequence (P47901 1-424): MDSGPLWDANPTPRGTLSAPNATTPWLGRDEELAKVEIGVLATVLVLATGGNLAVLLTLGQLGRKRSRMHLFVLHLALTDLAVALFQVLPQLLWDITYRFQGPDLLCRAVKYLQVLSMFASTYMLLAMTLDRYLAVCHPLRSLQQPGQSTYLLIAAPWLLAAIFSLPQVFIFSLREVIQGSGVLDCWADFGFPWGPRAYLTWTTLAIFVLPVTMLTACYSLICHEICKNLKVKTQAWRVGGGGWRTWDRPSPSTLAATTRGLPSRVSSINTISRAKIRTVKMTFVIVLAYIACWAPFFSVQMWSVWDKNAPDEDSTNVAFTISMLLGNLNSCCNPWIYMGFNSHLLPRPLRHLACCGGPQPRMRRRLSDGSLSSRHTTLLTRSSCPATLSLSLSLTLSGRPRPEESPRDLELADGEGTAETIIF
Description: In-vitro receptor binding assay (3H-arginine-8-vasopressin), V1b. The procedure: (A) In-Vitro Binding Assay […] The reaction plates are allowed to sit at room temperature for one hour. The samples are filtered through Unifilter GF/C plates (presoaked in 0.3 polyethyleneimine). The plates are washed 5 times with cold physiological saline containing 0.05% Tween 20. After drying, the bottom of the filter plates are sealed and 0.025 ml of Microscint-20 is added to each filter. The top of the plate is sealed, and the plate is counted. Non-specific binding is determined by the addition of 1.25 μM […]-vasopressin in those wells. % Inh. is calculated as follows: […]

In assay [2] the target is T1, V1a. Description: V1a vasopressin receptor functional activity (inhibition of vasopressin-induced intracellular calcium, FLIPR, V1a-HEK cells). Format: cell-based. Also noted: expressed in transfected cells. The following applies: HEK-293 cells transfected with human V1a receptor; vasopressin challenge. The procedure: [formula] (B) V1a Vasopressin Receptor Functional Activity
The V1a receptor is a G-protein coupled receptor, which upon activation triggers an increase in intracellular calcium mobilization. To evaluate compounds for their functional V1a receptor activity, HEK-293 cells were transfected with the human V1a receptor (V1a-HEK cells). HEK-293 cells were grown in DMEM (Dulbecco's modified Eagle Media) supplemented with 10% FBS and glutamine. HEK-cells were passed biweekly by trypsinization and seeded into 96 well plates at 33,000 cells per well. HEK-293 cells were transfected with human V1a receptor DNA using DMRIE-C reagent from Life Technologies. Stable lines were generated by selecting cells grown in culture media containing geneticin. After growing in Packard Clear-View black 96 well plates for 4-6 days, V1a-HEK cells were loaded with the calcium-sensitive fluorescence dye, FLUO-3 AM. Changes in cell fluorescence were quantitated using FLIPR (Fluorometric Imaging Plate Reader; Molecular Devices, Sunnyvale, Calif.). Test compounds were first added to the cells and the resulting changes in fluorescence measured to detect receptor agonistic activity. Five minutes later the cells were challenged with vasopressin to test compounds for their antagonistic activity. Receptor antagonists inhibit the ability of vasopressin to stimulate increases in intracellular fluorescence. IC50's were calculated.

Another assay deals with human V2 receptor (Homo sapiens, UniProt P30518). Description: In-vitro receptor binding assay (3H-arginine-8-vasopressin), V2. In a few lines:
as §1

Setting [3] is: @ 10 μM, read-out: Receptor Binding V1b (% Inh. @ concentration in μM).

T1 sequence (P37288 whole entry): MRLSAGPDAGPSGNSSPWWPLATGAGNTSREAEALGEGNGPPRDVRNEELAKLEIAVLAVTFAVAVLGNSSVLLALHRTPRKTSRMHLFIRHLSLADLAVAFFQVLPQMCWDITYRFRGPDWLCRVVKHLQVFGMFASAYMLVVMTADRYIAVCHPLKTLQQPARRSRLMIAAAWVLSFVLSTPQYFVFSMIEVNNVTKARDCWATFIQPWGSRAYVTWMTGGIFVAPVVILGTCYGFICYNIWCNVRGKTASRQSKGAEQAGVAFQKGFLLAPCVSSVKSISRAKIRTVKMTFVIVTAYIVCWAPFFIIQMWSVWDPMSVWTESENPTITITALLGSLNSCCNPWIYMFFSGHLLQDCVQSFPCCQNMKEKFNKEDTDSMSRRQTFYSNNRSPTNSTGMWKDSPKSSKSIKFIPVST

In the case of `O=C(NCCO)C1=CC2(CC1)CCN(C(=O)c1ccc(NC(=O)c3ccccc3F)cc1)c1ccccc1C2` (stereo not shown) [Compound 8], the IC50 at V1a [1] stood at 0.004 µM; on V1a [2] it was 0.099 µM. The inhibition at 0.1 µM on V1b (@ 0.1 μM, read-out: Receptor Binding V1b (% Inh. @ concentration in μM)) worked out at 41%.
With `CN(C)CCNC(=O)C1=CC2(CC1)CCN(C(=O)c1ccc(NC(=O)c3ccccc3-c3ccccc3)cc1)c1ccccc1C2` (single isomer, unassigned) [Compound 21], the IC50 came out at 0.181 µM at V1a [1], 0.44 µM on human V2 receptor and 0.008 µM on V1a [2]. The inhibition at 10 µM at V1b (setting [3]) was determined as 7%.
On V1a [1], “(S)-4-(2-fluorophenylbenzoyl-4-aminobenzoyl)-3′-(2-(N,N-dimethylaminoethylaminocarbonyl))-4-aza-[6,4]-spiro-[5,6]-benzoundec-2′-ene [Compound 22]” yielded a 50% inhibitory concentration (IC50) of 0.003 µM. Also, the “Receptor Binding V1b (% Inh. @ concentration in μM)” value at V1b (@ 10 μM) was found to be 17% @ 10. In addition, the “Receptor Binding V2 (% Inh. @ concentration in μM)” value at human V2 receptor (@ 0.1 μM) was found to be 15% @ 0.1.
With `CN(C)CCNC(=O)C1=C[C@]2(CC1)CCN(C(=O)c1ccc(NC(=O)c3ccccc3-c3ccccc3)cc1)c1ccccc1C2` [Compound 20, (S)-4-(2-phenylbenzoyl-4-aminobenzoyl)-3′-(2-(N,N-dimethylaminoethylaminocarbonyl))-4-aza-[6,4]-spiro-[5,6]-benzoundec-2′-ene], the IC50 at V1a [1] was determined as 0.003 µM; at human V2 receptor, 0.016 µM; on V1a [2], 0.002 µM. Further, the “Receptor Binding V1b (% Inh. @ concentration in μM)” value at V1b (@ 10 μM) worked out at 13% @ 10.
For the molecule “(R)-4-(2-fluorophenylbenzoyl-4-aminobenzoyl)-3′-(2-(N,N-dimethylaminoethylaminocarbonyl))-4-aza-[6,4]-spiro-[5,6]-benzoundec-2′-ene [Compound 23]”, the “Receptor Binding V1a (% Inh. @ concentration in μM)” value at V1a [1] (@ 0.1 μM) is 15% @ 0.1. On V1b, this molecule showed an IC50 of 13.7 µM. Moreover, the “Receptor Binding V2 (% Inh. @ concentration in μM)” value on human V2 receptor (@ 0.1 μM) is 1% @ 0.1.
For `CN(C)CCNC(=O)C1=CC2(CC1)CCN(C(=O)c1ccc(NC(=O)c3ccccc3-c3ccccc3)cc1)c1ccccc1C2` (stereo not shown) [Compound 9, 4-(2-Phenylbenzoyl-4-aminobenzoyl)-3′-[2-(N,N-dimethylaminoethylcarbonyl)]-4-aza-[6,4]-spiro-[5,6]-benzoundec-2′-ene], the results for the IC50 at V1a [1], at human V2 receptor and at V1a [2] were 0.005 µM, 0.011 µM and 0.004 µM, respectively. Further, at V1b (setting [3]), the inhibition at 10 µM was found to be 12%.
On to `O=C(NCCN1CCCC1)C1=CC2(CC1)CCN(C(=O)c1ccc(NC(=O)c3ccccc3F)cc1)c1ccccc1C2` (stereo not shown) [Compound 19], for which the IC50 at V1a [1] was 0.008 µM; at V1a [2], 0.155 µM. At V1b (@ 0.1 μM), the “Receptor Binding V1b (% Inh. @ concentration in μM)” value is 22% @ 0.1.
Turning to `CN(C)CCNC(=O)C1=CC2(CC1)CCN(C(=O)c1ccc(NC(=O)c3ccccc3F)cc1)c1ccccc1C2` (stereo not shown) [Compound 16, 4-(2-Fluorobenzoyl-4-aminobenzoyl)-3′-[2-(N,N-dimethylaminoethylcarbonyl)]-4-aza-[6,4]-spiro-[5,6]-benzoundec-2′-ene], the IC50 turned out to be 0.008 µM at V1a [1] and 0.126 µM at V1a [2]. Besides, the inhibition at 10 µM at V1b (setting [3]) was 8%. Also, the inhibition at 0.1 µM on human V2 receptor (@ 0.1 μM, read-out: Receptor Binding V2 (% Inh. @ concentration in μM)) was 17%.
